Experimental data from patent publication US20260258022A1, “NOVEL HETEROCYCLIC-SUBSTITUTED PYRIMIDINE DERIVATIVE EXHIBITING CANCER CELL GROWTH INHIBITORY EFFECT, AND PHARMACEUTICAL COMPOSITION CONTAINING SAME” (ONCOBIX CO., LTD., priority 2021, published 2026).

How the values were obtained:
ALK(L1196M) = ALK(L1196M) (Homo sapiens, UniProt Q9UM73, L1196M); test: Kinase inhibitory activity, [33P]-ATP filter assay, ALK(L1196M); format: biochemical; conditions: ALK point mutant kinase, scintillation counting
Chain of ALK(L1196M) (Q9UM73 19-1620 L1196M): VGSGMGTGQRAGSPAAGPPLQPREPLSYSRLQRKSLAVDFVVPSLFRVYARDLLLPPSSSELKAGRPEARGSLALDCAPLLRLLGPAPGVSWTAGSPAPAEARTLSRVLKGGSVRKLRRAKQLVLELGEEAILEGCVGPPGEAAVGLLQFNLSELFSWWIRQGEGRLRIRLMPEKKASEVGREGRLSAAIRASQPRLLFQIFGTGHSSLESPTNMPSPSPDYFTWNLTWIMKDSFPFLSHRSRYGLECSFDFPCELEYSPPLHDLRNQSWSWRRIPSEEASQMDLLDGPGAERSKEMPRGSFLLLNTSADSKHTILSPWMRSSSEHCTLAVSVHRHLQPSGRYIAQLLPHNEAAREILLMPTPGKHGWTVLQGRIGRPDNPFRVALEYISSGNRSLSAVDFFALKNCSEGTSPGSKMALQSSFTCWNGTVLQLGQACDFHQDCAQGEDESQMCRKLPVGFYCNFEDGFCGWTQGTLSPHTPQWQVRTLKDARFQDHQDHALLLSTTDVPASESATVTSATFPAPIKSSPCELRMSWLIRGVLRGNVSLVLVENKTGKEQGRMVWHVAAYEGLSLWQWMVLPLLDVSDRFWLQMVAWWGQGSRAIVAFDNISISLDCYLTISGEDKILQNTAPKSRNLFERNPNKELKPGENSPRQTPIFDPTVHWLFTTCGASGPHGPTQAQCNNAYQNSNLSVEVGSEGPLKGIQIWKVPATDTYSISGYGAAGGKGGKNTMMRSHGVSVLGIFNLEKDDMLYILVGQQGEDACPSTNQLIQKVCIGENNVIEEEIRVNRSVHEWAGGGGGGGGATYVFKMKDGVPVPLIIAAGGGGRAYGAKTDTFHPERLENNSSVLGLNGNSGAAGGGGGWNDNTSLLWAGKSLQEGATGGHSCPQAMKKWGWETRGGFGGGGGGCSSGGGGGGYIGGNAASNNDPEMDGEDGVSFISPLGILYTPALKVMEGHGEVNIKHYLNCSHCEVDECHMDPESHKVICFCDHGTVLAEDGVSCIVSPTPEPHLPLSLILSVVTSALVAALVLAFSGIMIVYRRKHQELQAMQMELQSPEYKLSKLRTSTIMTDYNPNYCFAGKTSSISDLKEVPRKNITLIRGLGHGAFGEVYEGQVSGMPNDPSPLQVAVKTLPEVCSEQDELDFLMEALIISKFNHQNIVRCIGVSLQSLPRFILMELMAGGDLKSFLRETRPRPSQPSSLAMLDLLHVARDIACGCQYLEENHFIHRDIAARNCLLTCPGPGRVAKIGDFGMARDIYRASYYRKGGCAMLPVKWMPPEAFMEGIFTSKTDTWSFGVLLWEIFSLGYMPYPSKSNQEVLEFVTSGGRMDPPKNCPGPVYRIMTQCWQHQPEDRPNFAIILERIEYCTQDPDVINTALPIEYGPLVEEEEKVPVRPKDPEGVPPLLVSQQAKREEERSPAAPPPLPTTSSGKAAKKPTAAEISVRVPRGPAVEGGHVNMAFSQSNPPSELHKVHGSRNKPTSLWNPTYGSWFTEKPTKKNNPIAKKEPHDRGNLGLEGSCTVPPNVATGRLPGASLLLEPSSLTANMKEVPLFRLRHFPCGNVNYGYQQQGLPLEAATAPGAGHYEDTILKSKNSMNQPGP
Procedure: (§1) For the compounds of Examples 1 to 8 above, the inhibitory activity against ALK, ALK mutation (ALK(G1202R)), and […] (ALK(L1196M)) was measured, and the results are shown in Table 1 below. […] Crizotinib […] was used as a control drug. • 1. Each kinase was incubated under 8 mM MOPS, pH 7.0, 0.2 mM EDTA, 250 μM KKKGQEEEYVFIE, 1 mM sodium orthovanadate, 5 mM sodium-6-glycerophosphate, 10 mM Magnesium acetate, [^33P]-ATP. • 2. The reaction proceeded by adding the evaluation compound (DMSO solution) and Mg/ATP. • 3. After about 40 minutes at room temperature, the reaction was terminated by adding 10 μL of 0.5% phosphoric acid. • 4. The reaction solution was divided into 0.5% 10 μL and spotted on a P30 filtermat. • 5. It was washed four times with 0.425% phosphoric acid for about 4 minutes. After washing once with methanol, it was dried and analyzed by scintillation counting to measure the IC50 value.

ALK = ALK (Homo sapiens, UniProt Q9UM73); test: Kinase inhibitory activity, [33P]-ATP filter assay, ALK; format: biochemical; conditions: wild-type ALK kinase, scintillation counting
Chain of ALK (Q9UM73 19-1620): as the sequence (Q9UM73 19-1620 L1196M) above, with M1178L counted along it
Procedure: as §1

ALK(G1202R) = ALK(G1202R) (Homo sapiens, UniProt Q9UM73, G1202R); test: Kinase inhibitory activity, [33P]-ATP filter assay, ALK(G1202R); format: biochemical; conditions: ALK point mutant kinase, scintillation counting
Chain of ALK(G1202R) (Q9UM73 19-1620 G1202R): as the sequence (Q9UM73 19-1620 L1196M) above, with M1178L, G1184R counted along it
Procedure: as §1

H3122 (EML4-ALK v1) = test: Cancer cell growth inhibition, MTT assay, H3122; format: cell-based; conditions: Homo sapiens, NCI-H3122, 72 hours incubation
Procedure: (§2) The growth inhibitory effects of the compounds in Examples 3, 7, and 8 above on ALK mutant cancer cell lines were measured. Anticancer efficacy activity was measured using H3122 (EML4-ALK v1) and H2228 (EML4-ALK v3) as ALK mutant cell lines by the following method.
(§3) 2×10^5 cells were seeded in a 96-well plate. 24 hours later, each of the compounds in Examples 3, 7, and 8 was treated in a dose-dependent manner, incubated for 72 hours, reacted with 15 uL MTT reagent for 4 hours, and then 100 uL 10% SDS was added thereto and incubated for 24 hours. The change in final OD was read at 595 nm. To analyze the MTT results, IC50 values were measured using prism software.
(§4) APG-2449 was used as a control drug.

H2228 (EML4-ALK v3) = test: Cancer cell growth inhibition, MTT assay, H2228; format: cell-based; conditions: Homo sapiens, NCI-H2228, 72 hours incubation
Procedure: as §2, §3, §4

Row | Structure (SMILES) | IC50 (ALK(L1196M)) | IC50 (ALK) | IC50 (ALK(G1202R)) | IC50 (H3122 (EML4-ALK v1)) | IC50 (H2228 (EML4-ALK v3))
1 | Cc1cc(Nc2ncc(Cl)c(Nc3ccccc3S(=O)(=O)C(C)C)n2)c(OC(C)C)cc1C1=CCN(C2CCOCC2)CC1 [APG-2449, reference compound] | 0.9 nM | 0.8 nM | > 1000 nM | 87.8 nM | 62.9 nM
2 | Cc1cc(Nc2ncc(Cl)c(Nc3ccccc3N(C)S(=O)(=O)C(C)C)n2)c(OC(C)C)cc1C1=CCN(C2CCOCC2)CC1 [Example 4, N-(2-((5-chloro-2-((2-isopropoxy-5-methyl-4-(1-(tetrahydro-2H-pyran-4-yl)-1,2,3,6-tetrahydropyridin-4-yl)phenyl)amino)pyrimidin-4-yl)amino)phenyl)-N-methylpropane-2-sulfonamide] | 0.3 nM | 0.9 nM | 161 nM |  | 
3 | Cc1cc(Nc2ncc(Cl)c(Nc3ccccc3N(C(C)C)S(C)(=O)=O)n2)c(OC(C)C)cc1C1=CCN(C2CCOCC2)CC1 [Example 6, N-(2-((5-chloro-2-((2-isopropoxy-5-methyl-4-(1-(tetrahydro-2H-pyran-4-yl)-1,2,3,6-tetrahydropyridin-4-yl)phenyl)amino)pyrimidin-4-yl)amino)phenyl)-N-isopropylmethanesulfonamide] | 6.7 nM | 0.6 nM | 254 nM |  | 
4 | Cc1cc(Nc2ncc(Cl)c(Nc3ccccc3NS(C)(=O)=O)n2)c(OC(C)C)cc1C1=CCN(C2CCOCC2)CC1 [Example 2, N-(2-((5-chloro-2-((2-isopropoxy-5-methyl-4-(1-(tetrahydro-2H-pyran-4-yl)-1,2,3,6-tetrahydropyridin-4-yl)phenyl)amino)pyrimidin-4-yl)amino)phenyl)methanesulfonamide] | 0.6 nM | 1.8 nM | 25.8 nM |  | 
5 | Cc1cc(Nc2ncc(Cl)c(Nc3ccccc3N(C)S(C)(=O)=O)n2)c(OCC(F)(F)F)cc1C1=CCN(C2CCOCC2)CC1 [Example 7, N-(2-((5-chloro-2-((5-methyl-4-(1-(tetrahydro-2H-pyran-4-yl)-1,2,3,6-tetrahydropyridin-4-yl)-2-(2,2,2-trifluoroethoxy)phenyl)amino)pyrimidin-4-yl)amino)phenyl)-N-methylmethanesulfonamide] | 0.05 nM | 0.5 nM | 10.5 nM | 39.1 nM | 16.8 nM

The next lines start with the values.

Row | IC50 (ALK(L1196M)) | IC50 (ALK) | IC50 (ALK(G1202R)) | IC50 (H3122 (EML4-ALK v1)) | IC50 (H2228 (EML4-ALK v3)) | Structure (SMILES)
6 | 0.5 nM | 3.1 nM | 153 nM |  |  | Cc1cc(Nc2ncc(Cl)c(Nc3ccccc3N(C3CC3)S(C)(=O)=O)n2)c(OC(C)C)cc1C1=CCN(C2CCOCC2)CC1 [Example 5, N-(2-((5-chloro-2-((2-isopropoxy-5-methyl-4-(1-(tetrahydro-2H-pyran-4-yl)-1,2,3,6-tetrahydropyridin-4-yl)phenyl)amino)pyrimidin-4-yl)amino)phenyl)-N-cyclopropylmethanesulfonamide]
7 | 0.2 nM | 1.1 nM | 17.8 nM |  |  | Cc1cc(Nc2ncc(Cl)c(Nc3ccccc3N(C)S(C)(=O)=O)n2)c(OC(C)C)cc1C1=CCN(C2CCOCC2)CC1 [Example 1, N-(2-((5-chloro-2-((2-isopropoxy-5-methyl-4-(1-(tetrahydro-2H-pyran-4-yl)-1,2,3,6-tetrahydropyridin-4-yl)phenyl)amino)pyrimidin-4-yl)amino)phenyl)-N-methylmethanesulfonamide]
8 | 0.05 nM | 0.6 nM | 0.7 nM | 31.9 nM | 43.1 nM | Cc1cc(Nc2ncc(Cl)c(Nc3ccccc3N(C)S(=O)(=O)C3CC3)n2)c(OC(C)C)cc1C1=CCN(C2CCOCC2)CC1 [Example 3, N-(2-((5-chloro-2-((2-isopropoxy-5-methyl-4-(1-(tetrahydro-2H-pyran-4-yl)-1,2,3,6-tetrahydropyridin-4-yl)phenyl)amino)pyrimidin-4-yl)amino)phenyl)-N-methylcyclopropanesulfonamide]
9 | 0.07 nM | 0.6 nM | 17.8 nM | 22.1 nM | 20.8 nM | Cc1cc(Nc2ncc(Cl)c(Nc3ccccc3N(C)S(N)(=O)=O)n2)c(OC(C)C)cc1C1=CCN(C2CCOCC2)CC1 [Example 8]
